Like-named read-outs stand apart in the source and are kept apart here.
Assay: Oral gavage pharmacokinetics, jugular and portal vein sampling, first pass metabolism
Format: in vivo, rat
Conditions: for AUC: po, 75 mg/kg; for AUC / concentration at 0 h / concentration at 0.08 h / concentration at 0.25 h / concentration at 0.33 h / concentration at 0.5 h / concentration at 0.67 h / concentration at 1 h / concentration at 1.25 h / concentration at 1.5 h / concentration at 2 h / concentration at 3 h / concentration at 4 h / concentration at 6 h / concentration at 12 h / concentration at 24 h / Cmax: rats N=4; for AUC / concentration at 0 h / concentration at 0.08 h / concentration at 0.25 h / concentration at 0.33 h / concentration at 0.5 h / concentration at 0.67 h / concentration at 1 h / concentration at 1.25 h / concentration at 1.5 h / concentration at 2 h / concentration at 3 h / concentration at 4 h / concentration at 6 h / concentration at 12 h / concentration at 24 h / Cmax / Tmax: Compound 1 75 mg/kg oral gavage; for Cmax: read-out: Cmax average ± standard deviation; for Tmax: rats
Method: Two separate IV studies were carried out using two separate lots of animals. IV-A was run on the same lot of animals as the oral gavage study and IV-B was run on the same lot of animals as the intraduodenal and intra-colonic studies.
For the oral gavage dosing, Compound 1 was prepared in neat PEG-400. For the intraduodenal and intracolonic dosing solutions, Compound 1 was added to neat Tween 80, the mixture was sonicated for thirty minutes at 45° C. until Compound 1 was completely dissolved and then deionized (DI) water was added to form a solution consisting of 20% Tween 80 and 80% DI water by weight.
For the IV and oral gavage dosing (sampling at jugular and portal vein), young adult male Sprague Dawley rats weighing 250-400 g were purchased from Hilltop Lab Animals Inc. All rat experiments were conducted under approved animal protocols. The rats for the oral gavage dosing were catheterized at Hilltop Lab Animals Inc, had two chronic catheters for sampling: jugular and portal, were housed in cages of Culex™ Automated Blood Sampler (ABS) and blood samples were collected simultaneously via both cannula and were controlled by the Culex™ ABS control software.
A quantitative method for determining the amount of (6,7-dimethoxy-2,4-dihydro-indeno[1,2-c]pyrazol-3-yl)-(3-fluoro-phenyl)-amine Compound 1 and its major metabolites, glucuronide A (Cpd 1-GluA) and glucuronide B (Cpd 1-GluB) (see Scheme A) in rat plasma was developed using phenacetin as an internal standard. [drawing 1]
The two glucuronide conjugates were prepared and purified to permit accurate quantification of the levels of intact parent Compound 1 versus Cpd 1-GluA and Cpd 1-GluB. Each standard curve for Compound 1, Cpd 1-GluA, and Cpd 1-GluB generated from rat plasma included ten concentration levels. […] The quantitative procedure for each sample included: sample preparation, HPLC separation and mass spectrometry detection.
The rat plasma was prepared using protein precipitation techniques. Reference standards and quality control samples in rat plasma for Compound 1 were transferred to a 96 deep-well plate. The precipitation solution contained 100 ng/ml of internal standard in acetonitrile. 300 μl of precipitation solution were added to 100 μl of each standard, quality control and plasma sample. Samples were vortexed for 10 mins, then centrifuged at 4500 RPM for 10 mins. 10 μl of each sample were injected for LC/MS/MS analysis.
The HPLC column chosen for the bioanalysis was purchased from Thermo Electron (Hypersil BetaBasic C18, 5 cm×2.1 mm). The eluting solvents were composed of Solvent A: 0.1% formic acid in H2O and Solvent B: 0.1% formic acid in acetonitrile. A step gradient was used and flow rate was 300 μl/min. The total run time was 3.2 mins. Solvent B was increased from 35% at 0 min to 75% at 2.1 mins and decreased back to 35% at 2.2 mins. The retention times for Compound 1, phenacetin, Cpd 1-GluA and Cpd 1-GluB were 1.1 min, 0.9 min, 1.3 min, and 1.6 min, respectively.
API3000 with a Turbo Ionspray interface from Applied Biosystems was used for the detection of Compound 1, the internal standard and major metabolites. Electrospray ionization was performed in the positive ion mode heated nebulizer with a temperature of 300° C. LC/MS/MS chromatograms were acquired in MRM (multiple reaction mode). The MRM transitions for Compound 1, the internal standard, Cpd 1-GluA and Cpd 1-GluB were from 326.3 to 190.6, 181.1 to 110.3, 502.2 to 368.3 and 502.2 to 326.4, respectively. […]

[1] = male, Sprague Dawley, rat, plasma (jugular vein sample), jugular sample, read-out: AUC average ± standard deviation 0 to 24 hours
[2] = male, Sprague Dawley, rat, plasma (jugular vein sample), jugular sample, read-out: AUC average ± standard deviation 0 to infinite hours
[3] = male, Sprague Dawley, rat, plasma (jugular vein sample), jugular sample
[4] = male, Sprague Dawley, rat, plasma (portal vein sample), portal sample
[5] = male, Sprague Dawley, rat, plasma
[6] = male, Sprague Dawley, rat, portal vein plasma, portal sample, read-out: AUC average ± standard deviation 0 to 24 hours
[7] = male, Sprague Dawley, rat, portal vein plasma, portal sample, read-out: AUC average ± standard deviation 0 to infinite hours
[8] = male, Sprague Dawley, rat, portal vein plasma, portal sample

COc1cc2c(cc1OC)-c1n[nH]c(Nc3cccc(F)c3)c1C2 [Compound 1, (6,7-dimethoxy-2,4-dihydro-indeno[1,2-c]pyrazol-3-yl)-(3-fluoro-phenyl)-amine]
Local absorption ratio (Fa) (Compound 1 75 mg/kg oral, Equation (2)): 48±18% | Hepatic recovery ratio (Fh) (Equation (3)): 40% | Extent of first pass metabolism (gut): 52% | Extent of first pass metabolism (liver): 60% | AUC [1]: 2340 ng·h/mL | AUC [2]: 2410 ng·h/mL | concentration at 0 h [3]: 6.7 ng/mL | concentration at 0.08 h [3]: 447 ng/mL | concentration at 0.25 h [3]: 2120 ng/mL | concentration at 0.33 h [3]: 1770 ng/mL | concentration at 0.5 h [3]: 1220 ng/mL | concentration at 0.67 h [3]: 626 ng/mL | concentration at 1 h [3]: 442 ng/mL | concentration at 1.25 h [3]: 465 ng/mL | concentration at 1.5 h [3]: 409 ng/mL | concentration at 2 h [3]: 378 ng/mL | concentration at 3 h [3]: 127 ng/mL | concentration at 4 h [3]: 61.3 ng/mL | concentration at 6 h [3]: 51.1 ng/mL | concentration at 12 h [3]: 22.8 ng/mL | concentration at 24 h [3]: 7.7 ng/mL | Cmax [3]: 2120 ng/mL | concentration at 0.67 h [4]: 2300 ng/mL | concentration at 1 h [4]: 346 ng/mL | concentration at 1.25 h [4]: 972 ng/mL | concentration at 1.5 h [4]: 465 ng/mL | concentration at 2 h [4]: 1880 ng/mL | concentration at 3 h [4]: 336 ng/mL | concentration at 4 h [4]: 398 ng/mL | concentration at 6 h [4]: 1010 ng/mL | concentration at 12 h [4]: 250 ng/mL | bioavailability (male, Sprague Dawley, rat, plasma, Compound 1 75 mg/kg oral, read-out: Systemic oral bioavailability): 19 ± 5% | Tmax [5]: 15 min | AUC [6]: 11900 ng·h/mL | AUC [7]: 12500 ng·h/mL | concentration at 0 h [8]: 2.4 ng/mL | concentration at 0.08 h [8]: 7520 ng/mL | concentration at 0.25 h [8]: 4250 ng/mL | concentration at 0.33 h [8]: 3880 ng/mL | concentration at 0.5 h [8]: 873 ng/mL | concentration at 24 h [8]: 224 ng/mL | Cmax [8]: 8690 ng/mL | Plasma level of Compound 1 relative to level of the metabolites (oral administration): 6%

COc1cc2c(cc1OC)-c1n[nH]c(N(c3cccc(F)c3)[C@H]3O[C@@H](C(=O)O)[C@H](O)[C@@H](O)[C@@H]3O)c1C2 [Cpd 1-GluA]
Ratio of metabolite to Compound 1 (jugular vein, oral gavage): 78 | AUC [1]: 117000 ng·h/mL | AUC [2]: 169000 ng·h/mL | concentration at 0 h [3]: 2.2 ng/mL | concentration at 0.08 h [3]: 2570 ng/mL | concentration at 0.25 h [3]: 12400 ng/mL | concentration at 0.33 h [3]: 16100 ng/mL | concentration at 0.5 h [3]: 15700 ng/mL | concentration at 0.67 h [3]: 14700 ng/mL | concentration at 1 h [3]: 14300 ng/mL | concentration at 1.25 h [3]: 11700 ng/mL | concentration at 1.5 h [3]: 11700 ng/mL | concentration at 2 h [3]: 11100 ng/mL | concentration at 3 h [3]: 6480 ng/mL | concentration at 4 h [3]: 3750 ng/mL | concentration at 6 h [3]: 4290 ng/mL | concentration at 12 h [3]: 5170 ng/mL | concentration at 24 h [3]: 2470 ng/mL | Cmax [3]: 17600 ng/mL | concentration at 0.67 h [4]: 26000 ng/mL | concentration at 1 h [4]: 11700 ng/mL | concentration at 1.25 h [4]: 15100 ng/mL | concentration at 1.5 h [4]: 12200 ng/mL | concentration at 2 h [4]: 14700 ng/mL | concentration at 3 h [4]: 10700 ng/mL | concentration at 4 h [4]: 7500 ng/mL | concentration at 6 h [4]: 11600 ng/mL | concentration at 12 h [4]: 8000 ng/mL | Tmax [5]: 54 min | AUC [6]: 190000 ng·h/mL | AUC [7]: 271000 ng·h/mL | concentration at 0 h [8]: 1.3 ng/mL | concentration at 0.08 h [8]: 9460 ng/mL | concentration at 0.25 h [8]: 18900 ng/mL | concentration at 0.33 h [8]: 22400 ng/mL | concentration at 0.5 h [8]: 17400 ng/mL | concentration at 24 h [8]: 5070 ng/mL | Cmax [8]: 29200 ng/mL | Systemic exposure of Glu A relative to Glu B (oral gavage dosing): ~66 times | Mean ratio of metabolite to Compound 1 (portal system, oral gavage): 20

Reference: patent US20080031866A1, “METHOD FOR MODULATING THE PHARMACOKINETICS AND METABOLISM OF A THERAPEUTIC AGENT” (priority 2006, published 2008)
